Source: US20030224978A1, “Compounds and methods for modulating apoptosis” (McGill University, priority 1996, published 2003)
“Also recorded” adds a separate entry of the source. Positions of bridges follow the written chain, without caps; N, C: chain ends. Residues, ends and D or L forms follow the SMILES beside them.

Tests used:
Type in all cases: cell-based
[1] = molecular target: T1, chick N-cadherin (Gallus gallus, UniProt P10288); assay: N-cadherin dependent neurite outgrowth of rat cerebellar neurons on N-cadherin expressing 3T3 cells (Example 14)
T1 construct: expressed in transfected cells; host or cells: 3T3 fibroblasts
T1 sequence (P10288 165-912): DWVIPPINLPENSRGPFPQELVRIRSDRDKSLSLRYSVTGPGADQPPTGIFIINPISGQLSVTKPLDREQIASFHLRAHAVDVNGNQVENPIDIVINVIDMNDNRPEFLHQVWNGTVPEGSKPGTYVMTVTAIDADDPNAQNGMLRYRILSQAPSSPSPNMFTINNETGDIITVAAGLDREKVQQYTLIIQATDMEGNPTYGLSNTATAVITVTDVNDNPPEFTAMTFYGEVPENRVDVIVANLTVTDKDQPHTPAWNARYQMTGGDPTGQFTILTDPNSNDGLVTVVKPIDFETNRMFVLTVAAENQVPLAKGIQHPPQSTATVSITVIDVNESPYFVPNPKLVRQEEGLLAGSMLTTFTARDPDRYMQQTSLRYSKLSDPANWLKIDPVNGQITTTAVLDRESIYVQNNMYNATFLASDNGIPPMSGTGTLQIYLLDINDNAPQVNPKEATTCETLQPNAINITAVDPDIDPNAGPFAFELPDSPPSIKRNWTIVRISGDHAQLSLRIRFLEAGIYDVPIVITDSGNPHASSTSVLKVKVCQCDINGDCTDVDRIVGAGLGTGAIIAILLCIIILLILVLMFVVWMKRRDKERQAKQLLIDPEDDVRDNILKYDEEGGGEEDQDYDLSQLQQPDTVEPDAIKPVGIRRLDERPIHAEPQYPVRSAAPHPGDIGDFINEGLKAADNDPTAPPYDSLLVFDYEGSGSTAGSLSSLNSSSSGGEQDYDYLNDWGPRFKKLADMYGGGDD
Procedure: (§1) Cell culture and neurite outgrowth assays. Co-cultures of cerebellar neurons on monolayers of control 3T3 cells and monolayers of transfected 3T3 cells that express physiological levels of chick N-cadherin or human L1 were established as previously described (Williams et al., Neuron 13:583-594, 1994). In brief, 80,000 3T3 cells (control and transfected) were plated into individual chambers of an eight-chamber tissue culture slide coated with polylysine and fibronectin and cultured in DMEM/10% FCS. After 24 hours, when confluent monolayers had formed, the medium was removed and 3000 cerebellar neurons isolated from post-natal day 2-3 rats were plated into each well in SATO media (Doherty et al., Nature 343:464-466, 1990) supplemented with 2% FCS. All of the test peptides were added immediately before the neurons as a 2×stock prepared in SATO/2% FCS. The co-cultures were maintained for 16-18 hours, at which time they were fixed and immunostained for GAP-43 which is present only in the neurons and delineates the neuritic processes. The mean length of the longest neurite per cell was measured for 150-200 neurons sampled in replicate cultures as previously described (Williams et al., Neuron 13:583-594, 1994). […] Dose-response curves were evaluated and the EC50 values determined.
Effects of cyclic HAV peptides on N-cadherin function. The ability of N-Ac-CHAVC-NH2 (SEQ ID NO:10; compound 1) to inhibit neurite outgrowth was initially tested. This cyclic peptide has the cadherin CAR sequence (HAV) and no flanking amino acid residues. Neurons were cultured on confluent monolayers of control (untransfected) and N-cadherin expressing 3T3 cells for 16-18 hours. The cells were then fixed and the length of the longest neurite on 150-200 neurons was determined by standard assay, as described above. FIG. 24 gives the mean neurite length in a representative experiment where cerebellar neurons have been cultured over control and N-cadherin expressing cells. In the absence of peptide, the mean length of the longest neurite per cell was approximately double on the N-cadherin expressing cells, as compared to 3T3 cells. This response requires N-cadherin function in both the neuron and transfected fibroblast.

[2] = molecular target: L1 (Homo sapiens, UniProt P32004); assay: L1 response: neurite outgrowth of rat cerebellar neurons on L1 expressing 3T3 cells (Example 14); parameters: expressed in transfected cells; host or cells: 3T3 cells (stably transfected); settings: 100 μg/mL, concentrations that substantially inhibited the N-cadherin response
Procedure: FIG. 26 is a bar graph illustrating the effects of the cyclic peptides N-Ac-CHAVDC-NH2 (SEQ ID NO:11), N-Ac-CHAVDIC-NH2 (SEQ ID NO:62) and N-Ac-[…]-NH2 (SEQ ID NO:63) on L1 function. Cerebellar neurons were cultured on monolayers of control 3T3 cells and L1 expressing 3T3 cells for 16-18 hours in control media (unshaded) or control media supplemented with peptides N-Ac-CHAVDC-NH2 (SEQ ID NO:11; diagonal rising right), N-Ac-CHAVDIC-NH2 (SEQ ID NO:62); diagonal cross hatch) or N-Ac-[…]-NH2 (SEQ ID NO:63; diagonal rising left) at a concentration of 100 μg/mL. The cultures were then fixed and neurite outgrowth determined by measuring the length of the longest neurite from a total of 150-200 neurons sampled in replicate cultures for each experimental condition. […] The results are pooled from three independent experiments, and the bars show the s.e.m.
as §1, with “The co-cultures were maintained for 16-18 hours, at which time they were fixed and immunostained for GAP-43 which is present only in the neurons and delineates the neuritic processes.” left out, “determined. […]” for “determined.”

[3] = in vitro; settings: human
Procedure: (§2) N-Ac-CHAVC-NH2 (SEQ ID NO:10) and the control peptide N-Ac-CHGVC-NH2 (SEQ ID NO:20) were evaluated for possible cytotoxic effects on human microvascular endothelial (HMVEC; Clonetics), human umbilical vein endothelial (HUVEC; ATCC #CRL-1730), IAFp2 (human fibroblast cell line; Institute Armand-Frapier, Montreal, Quebec), WI-38 (human fibroblast cell line; ATCC #CCL-75), MDA-MB231 (human breast cancer cell line; ATCC #HTB-26), and PC-3 (human prostate cancer cell line; ATCC #CRL-1435) cells utilizing the MTT assay (Plumb et al., Cancer Res. 49:4435-4440, 1989). Neither of the peptides was cytotoxic at concentrations up to and including 100 μM. Similarly, neither of the peptides was capable of inhibiting the proliferation of the above cell lines at concentrations up to 100 μM, as judged by ^3H-thymidine incorporation assays.

[4] = in vitro; settings: human; remark: listed apart in the source
Procedure: as §2

[5] = test system: bovine pulmonary artery endothelial cells; assay: Disruption of bovine endothelial cell adhesion; settings: 500 μg/ml, 30 minutes
Procedure: For use within one such assay, bovine pulmonary artery endothelial cells may be harvested by sterile ablation and digestion in 0.1% collagenase (type II; Worthington Enzymes, Freehold, N.J.). Cells may be maintained in Dulbecco's minimum essential medium supplemented with 10% fetal calf serum and 1% antibiotic-antimycotic at 37° C. in 7% CO2 in air. Cultures may be passaged weekly in trypsin-EDTA and seeded onto tissue culture plastic at 20,000 cells/cm^2. Endothelial cultures may be used at 1 week in culture, which is approximately 3 days after culture confluency is established. The cells may be seeded onto coverslips and treated (e.g., for 30 minutes) with modulating agent or a control compound at, for example, 500 μg/ml and then fixed with 1% paraformaldehyde. As noted above, disruption of cell adhesion may be determined visually within 24 hours, by observing retraction of the cells from one another. This assay evaluates the effect of a modulating agent on N-cadherin mediated cell adhesion.
Bovine pulmonary artery endothelial cells were harvested by sterile ablation and digestion in 0.1% collagenase (type II; Worthington Enzymes, Freehold, N.J.). Cells were maintained in Dulbecco's […] essential medium (Clonetics, San Diego, Calif.) supplemented with 10% fetal calf serum (Atlantic Biologicals, Nor cross, Ga.) and 1% antibiotic-antimycotic at 37° C. in 7% CO2 in air. Cultures were passaged weekly in trypsin-EDTA (Gibco, Grand Island, N.Y.) and seeded onto tissue culture plastic at 20,000 cells/cm^2 for all experiments. Endothelial cultures were used at 1 week in culture, which is approximately 3 days after culture confluency was established. The cells used in all protocols were between 4th passage and 10th passage. The cells were seeded onto coverslips and treated 30 minutes with N-Ac-CHAVC-NH2 (SEQ ID NO:10) or N-Ac-CHGVC-NH2 (SEQ ID NO:20) at 500 μg/ml and then fixed with 1% paraformaldehyde.

[6] = in vitro; settings: human; remark: listed apart in the source
Procedure: as §2

[7] = in vitro; settings: human; remark: listed apart in the source
Procedure: as §2

Sequence of L1 (P32004 20-1257): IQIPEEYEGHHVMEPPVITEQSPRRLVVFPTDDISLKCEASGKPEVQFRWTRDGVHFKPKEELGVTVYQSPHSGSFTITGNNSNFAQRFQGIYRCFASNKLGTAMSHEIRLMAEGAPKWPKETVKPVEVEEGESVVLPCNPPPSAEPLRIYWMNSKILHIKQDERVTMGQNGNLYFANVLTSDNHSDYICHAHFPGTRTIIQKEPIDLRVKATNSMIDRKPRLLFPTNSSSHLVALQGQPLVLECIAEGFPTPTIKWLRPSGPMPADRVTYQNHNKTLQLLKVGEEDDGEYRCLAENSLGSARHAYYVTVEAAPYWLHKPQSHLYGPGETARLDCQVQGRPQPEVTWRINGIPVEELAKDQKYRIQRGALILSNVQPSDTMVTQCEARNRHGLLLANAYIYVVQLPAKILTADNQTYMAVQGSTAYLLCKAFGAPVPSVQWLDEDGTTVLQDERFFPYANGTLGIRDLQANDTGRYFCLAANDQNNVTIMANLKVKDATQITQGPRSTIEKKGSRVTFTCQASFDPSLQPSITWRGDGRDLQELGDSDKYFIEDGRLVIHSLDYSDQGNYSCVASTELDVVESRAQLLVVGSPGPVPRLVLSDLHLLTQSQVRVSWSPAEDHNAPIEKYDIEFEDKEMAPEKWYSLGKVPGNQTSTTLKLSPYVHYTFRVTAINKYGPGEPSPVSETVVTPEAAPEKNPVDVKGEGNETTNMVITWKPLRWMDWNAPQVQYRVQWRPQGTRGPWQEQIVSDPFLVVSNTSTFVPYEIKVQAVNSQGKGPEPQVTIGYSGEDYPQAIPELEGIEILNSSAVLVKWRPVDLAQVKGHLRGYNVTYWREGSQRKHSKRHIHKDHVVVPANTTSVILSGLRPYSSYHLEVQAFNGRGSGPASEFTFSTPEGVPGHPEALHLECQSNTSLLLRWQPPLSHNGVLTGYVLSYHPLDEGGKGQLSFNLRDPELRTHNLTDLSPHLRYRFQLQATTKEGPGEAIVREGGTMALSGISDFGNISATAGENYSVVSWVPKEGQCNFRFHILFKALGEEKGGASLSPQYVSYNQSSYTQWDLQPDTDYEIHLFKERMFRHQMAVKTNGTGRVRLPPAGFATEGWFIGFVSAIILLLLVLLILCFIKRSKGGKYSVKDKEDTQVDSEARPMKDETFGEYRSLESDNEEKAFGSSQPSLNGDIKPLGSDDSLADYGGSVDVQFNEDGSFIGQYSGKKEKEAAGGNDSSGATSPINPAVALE

inhibition at 125 µg/mL ([1]; NIH3T3, 125 μg/mL, 16-18 hours) [%]	EC50 ([1]; from dose-response curve) [µM]	IC50 [3] [µM]	IC50 [4] [µM]	inhibition at 250 µg/mL ([1]; NIH3T3, 250 μg/mL, 16-18 hours) [%]	IC50 [6] [µM]	IC50 [7] [µM]	Structure (SMILES)	inhibitory activity on N-cadherin dependent neurite outgrowth, in words ([1]; Tables 8 and 9, 250 or 125 μg/mL)	effect on L1 response (neurite outgrowth over L1 expressing 3T3 cells) [2]	effect on endothelial cell monolayer / morphology [5]
62 ± 3.4	70	–	–	–	–	–	CC[C@H](C)[C@@H]1NC(=O)[C@H](CC(=O)O)NC(=O)[C@H](C(C)C)NC(=O)[C@H](C)NC(=O)[C@H](Cc2c[nH]cn2)NC(=O)[C@@H](NC(C)=O)CSSC[C@@H](C(N)=O)NC(=O)[C@H](CC(N)=O)NC1=O (Ac-CHAVDINC-NH2; disulfide 1-8)	only a slight loss in activity; also recorded: potent inhibitors	did not interfere with the ability of neurons to extend neurites over 3T3 cells expressing L1; also recorded: not inhibited	–
–	–	> 100	> 100	4 ± 6.9	> 100	> 100	CC(=O)N[C@H]1CSSC[C@@H](C(N)=O)NC(=O)[C@H](CC(=O)O)NC(=O)[C@H](C(C)C)NC(=O)CNC(=O)[C@H](Cc2c[nH]cn2)NC(=O)[C@H](C)NC1=O [N-Ac-CAHGVDC-NH2, reference compound] (Ac-CAHGVDC-NH2; disulfide 1-7)	–	–	inactive
